Reference: patent US20130324493A1, “COMPOSITIONS COMPRISING NINGNANMYCIN AND USES THEREFOR” (North Carolina State University, priority 2012, published 2013)
Values after ≈ are worked out from the molar mass of the structure shown. Where two headings read alike, the source gives them in different places.

Assays:
rat [1] = conditions: cited from earlier work
Sclerotinia homoeocarpa = assay: In vitro sensitivity assay (radial growth on fungicide-amended PDA); format: cell-based; conditions: Clarireedia homoeocarpa
Description: (§1) Three isolates of S. homoeocarpa and two isolates of C. cereale were selected to evaluate ningnanmycin (Ningnanmycin 10WP, Deqiang Biological Co., LTD. Harbin, Helongjiang, China) in vitro activities using 5 three-fold dilutions from 0.81 to 0.01 μg a.i./ml. […] Based on preliminary experiments, five dilutions of triticonazole were used, ranging from 0.81 to 0.01 μg a.i/ml for isolates of S. homoeocarpa and from 6.25 to 0.01 μg a.i./ml for isolates of C. cereale. All isolates were prepared for long-term storage on pieces of dried filter paper maintained at −80° C. Filter paper sections containing each isolate were removed from −80° C. storage and placed on PDA amended with 0.05 μg/ml each of chloramphenicol, streptomycin, and tetracycline (PDA+++). After 3 days, mycelium-containing plugs (1×1 cm) were transferred to water agar for another 2 days. Then, water agar plugs (0.45 cm diameter) were cut from the periphery of the colony using a cork borer and placed on the center of Petri dishes containing non-amended PDA and PDA amended with the serial concentrations of each fungicide with three replicates per isolate. Radial growth was measured after three days (72 h) incubation at room temperature for isolates of S. homoeocarpa and seven days for isolates of C. cereale. Relative Growth (RG) was calculated by dividing colony diameter on amended PDA by that on the non-amended PDA. EC50 values were then calculated using the method described by Secor et al. (Fungicide resistance assays for fungal plant pathogens. Methods Mol Biol. 835:385-392, 2012). The in vitro sensitivity assay repeated twice and EC50 value of each isolates was determined as the mean of EC50 values from two assays.

Colletotrichum cereale = assay: as above; format: cell-based
Description: as §1

guinea pig = conditions: in vivo; cited from earlier work
rabbit [2] = conditions: in vivo; cited from earlier work
rat [3] = conditions: Trinity 1.69SC MSDS; cited from earlier work
honey bee = conditions: cited from earlier work
Oncorhynchus mykiss = conditions: cited from earlier work
rabbit [4] = conditions: in vivo; cited from earlier work; remark: listed apart in the source
anthracnose (C. cereale) = assay: Field efficacy test, control of anthracnose on putting green turf; format: in vivo, 'Dominant Plus' creeping bentgrass; conditions: Trinity 1.69SC 0.32 ml/m^2, 14 d interval; for Turf quality: 1-to-9 scale (9 = best), anthracnose trial
Lepomis macrochirus = conditions: cited from earlier work
green algae = conditions: in vivo; cited from earlier work

In the case of CC1(C)CCC(=Cc2ccc(Cl)cc2)C1(O)Cn1cncn1 (stereo not shown) [triticonazole, reference compound], the “Acute toxicity Dermal LD50” value (rat [1]) is given as >2,000/mg/kg, the EC50 (Sclerotinia homoeocarpa; 72 h, isolate 761SHME, radial growth after 72 h, mean of two assays, Ningnanmycin 10WP / technical triticonazole, μg a.i./ml, read-out: EC50) is given as 0.05 µg/mL (≈ 0.157 µM) and the EC50 (Sclerotinia homoeocarpa; 72 h, isolate LWC 27, radial growth after 72 h, mean of two assays, read-out: EC50) is given as 0.06 µg/mL (≈ 0.189 µM). The EC50 (Sclerotinia homoeocarpa; 72 h, isolate PST4, radial growth after 72 h, mean of two assays, read-out: EC50) was 0.03 µg/mL (≈ 0.0944 µM), the EC50 (Sclerotinia homoeocarpa; mean of three isolates, read-out: mean EC50) was 0.05 µg/mL (≈ 0.157 µM) and the EC50 (Colletotrichum cereale; 168 h, isolate ABR1, radial growth after seven days, mean of two assays, read-out: EC50) was 1.24 µg/mL (≈ 3.9 µM). For the same compound, the EC50 (Colletotrichum cereale; 168 h, isolate ABR12, radial growth after seven days, mean of two assays, read-out: EC50) was 0.72 µg/mL (≈ 2.27 µM), the EC50 (Colletotrichum cereale; mean of two isolates, read-out: mean EC50) was 0.98 µg/mL (≈ 3.08 µM) and the Sensitization (guinea pig) was “no”. For the same compound, the Irritation to eye (rabbit [2]) was “slightly irritating”, the “Acute toxicity Oral LD50” value (rat [3]) was >5,000 mg/kg and the “Non-mammals, honey bee” value (honey bee) was 1.87 μg/bee. The “Fish LC50 (96 h)” value (Oncorhynchus mykiss) was >3.6 µg/mL, the Irritation to skin (rabbit [4]) was “moderately irritating” and the Turf quality (anthracnose (C. cereale); Aug. 8, 2010) was 5. The Turf quality (anthracnose (C. cereale); Aug. 15, 2010) was 5, the “Anthracnose severity (%)” value (anthracnose (C. cereale); Aug. 1, 2011) was 17% and the “Anthracnose severity (%)” value (anthracnose (C. cereale); Aug. 8, 2011) was 3%. The “Anthracnose severity (%)” value (anthracnose (C. cereale); Aug. 15, 2011) was 12%, the “Anthracnose severity (%)” value (anthracnose (C. cereale); Jul. 25, 2011) was 16% and the “Fish LC50 (96 h)” value (Lepomis macrochirus) was >8.9 mg/L (Lepomis. The “Aquatic plants EC50” value (green algae) was >1 mg/L (96 h).
